Broadly, the GI50 is the concentration that inhibits growth by half.

Among the test systems are CAKI-1; CCRF-CEM; EKVX; HCC 2998; HCT-116; IGROV-1; M14; Malme-3M; NCI-H522; OVCAR-3; SF-295; SF-539; SK-OV-3; SNB-19; SW-620; UACC-257; UO-31; SK-MEL-5.
Common to all, as to assay: DTP human tumour cell line panel, 48 h

Structures are written as SMILES.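 Tested at 5 concentrations; 48 h exposure; 96-well plates; endpoints linearly interpolated, else capped at highest concentration. GI50 is the concentration that inhibits growth by half.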 Calls of active or inactive are those of the source. Cut-off read from the data, not from the text of the source: active = GI50 up to about 1.1 µM and inactive = higher.

Regarding `CS/C(=N\C(=S)N(C)C)N(c1ccccc1)c1nc(N(C)C)s[s+]1`, the GI50 with CAKI-1 was 29 µM (inactive); in the assay with CCRF-CEM, 1.88 µM (inactive); with EKVX it was 16 µM (inactive); in the assay on HCC 2998, 11.9 µM (inactive); in the assay on HCT-116, 10 µM (inactive); in the assay with IGROV-1, 77.3 µM (inactive). The GI50 is 4.83 µM (inactive) in the assay on M14; 2.34 µM (inactive) in the assay on Malme-3M; 1.47 µM (inactive) in the assay on NCI-H522; 10.8 µM (inactive) with OVCAR-3; 16.7 µM (inactive) with SF-295; 7.67 µM (inactive) in the assay with SF-539. Besides, the GI50 was 41.3 µM (inactive) in the assay with SK-OV-3; 32.6 µM (inactive) in the assay with SNB-19; 4.05 µM (inactive) in the assay with SW-620; 3.95 µM (inactive) with UACC-257; 27.9 µM (inactive) with UO-31.
As for `O=C(O)COc1ccccc1C(=O)Nc1ccccc1`, the GI50 with CAKI-1, in the assay with CCRF-CEM, with EKVX, in the assay on HCT-116, in the assay with IGROV-1 and in the assay with M14 was > 100 µM (inactive) in each case. In addition, the GI50 in the assay with Malme-3M, in the assay with NCI-H522, in the assay on OVCAR-3, in the assay with SF-295, in the assay with SF-539 and with SK-MEL-5 was > 100 µM (inactive) each time. In addition, the GI50 in the assay with SK-OV-3, in the assay on SNB-19, with SW-620, in the assay with UACC-257 and in the assay on UO-31 was > 100 µM (inactive) throughout.
Regarding `COC(=O)C1CCC[C@H]2C(CO)=C(C)C(=O)[C@@H]12` (some centres not stated), the GI50 in the assay on CAKI-1, in the assay with CCRF-CEM, in the assay on EKVX, with HCC 2998, in the assay on HCT-116 and with IGROV-1 was > 100 µM (inactive) throughout. Moreover, the GI50 with M14, in the assay on Malme-3M, in the assay on NCI-H522, in the assay on SF-295, with SF-539 and in the assay on SK-MEL-5 was > 100 µM (inactive) throughout. Further, the GI50 in the assay on SK-OV-3, with SNB-19, in the assay with SW-620, in the assay with UACC-257 and in the assay on UO-31 was > 100 µM (inactive) in each case.
For the compound `CCOC(=O)NC(=O)c1cn(CCSCCOC(=O)NCCCCCCNC(=O)OCCSCCn2cc(C(=O)NC(=O)OCC)c(=O)n(C)c2=O)c(=O)n(C)c1=O`, the GI50 in the assay with CCRF-CEM was 30 µM (inactive); in the assay with EKVX it was > 100 µM (inactive); in the assay with HCC 2998, 30.5 µM (inactive); in the assay on HCT-116 it was 19.2 µM (inactive); in the assay with Malme-3M, 24.6 µM (inactive); with OVCAR-3, 23.8 µM (inactive). Besides, the GI50 is 75.7 µM (inactive) in the assay on SF-295; 25.9 µM (inactive) in the assay on SF-539; 34.7 µM (inactive) in the assay on SK-OV-3; 34 µM (inactive) in the assay with SNB-19; 29.8 µM (inactive) in the assay with SW-620; 24.4 µM (inactive) in the assay with UACC-257. Also, the GI50 with UO-31 was > 100 µM (inactive).
On to `COC1/C(=C\c2ccccc2I)c2ccccc2N1C(C)=O` (configuration not stated), for which the GI50 was 17.1 µM (inactive) in the assay on CAKI-1; 17 µM (inactive) in the assay on CCRF-CEM; 15.1 µM (inactive) in the assay on EKVX; 16 µM (inactive) in the assay with HCC 2998; 13.8 µM (inactive) in the assay on HCT-116; 18.1 µM (inactive) with IGROV-1. Besides, the GI50 in the assay on OVCAR-3 is 16.6 µM (inactive); with SF-295, 14.3 µM (inactive); with SF-539, 16.4 µM (inactive); with SNB-19 it was 22.6 µM (inactive); in the assay on SW-620, 20.6 µM (inactive); in the assay with UACC-257, 18.3 µM (inactive). The GI50 in the assay with UO-31 was 2.48 µM (inactive).
Turning to `O=C(N[C@@H](c1ccccc1)[C@@H](O)C(=O)OCc1ccc2c(c1)OCO2)c1ccccc1`, the GI50 is 1 µM (active) in the assay on CAKI-1; > 100 µM (inactive) with CCRF-CEM; > 100 µM (inactive) in the assay with EKVX; > 100 µM (inactive) in the assay with HCC 2998; > 100 µM (inactive) with HCT-116; > 100 µM (inactive) in the assay with IGROV-1. For the same compound, the GI50 with Malme-3M, in the assay on NCI-H522, in the assay with OVCAR-3, in the assay on SF-295, in the assay with SF-539 and in the assay on SK-MEL-5 was > 100 µM (inactive) each time. Moreover, the GI50 in the assay on SK-OV-3 was > 100 µM (inactive); with SNB-19 it was > 100 µM (inactive); in the assay with SW-620, > 100 µM (inactive); in the assay on UACC-257 it was > 100 µM (inactive); in the assay with UO-31 it was > 91.6 µM (inactive).
`Cc1cccc(C(C)(C)C)c1NC(=O)CCc1nnc(S)[nH]1`: the GI50 with CAKI-1, in the assay with CCRF-CEM, in the assay with HCC 2998, in the assay with HCT-116, in the assay with IGROV-1 and with M14 was > 100 µM (inactive) each time. Also, the GI50 with Malme-3M, in the assay on NCI-H522, in the assay with OVCAR-3, in the assay with SF-295, with SF-539 and with SK-MEL-5 was > 100 µM (inactive) each time. Moreover, the GI50 in the assay with SK-OV-3, in the assay on SNB-19, in the assay with SW-620, in the assay with UACC-257 and in the assay on UO-31 was > 100 µM (inactive) throughout.
On to `Cc1cc(O)c2c(c1)C(=O)c1cc(O)cc(O)c1C2=O` [EMODIN], for which the GI50 with CAKI-1 is 17.1 µM (inactive); with CCRF-CEM, > 61.8 µM (inactive); in the assay with HCC 2998, 31.3 µM (inactive); with HCT-116, 24 µM (inactive); with M14, 21.4 µM (inactive); in the assay with Malme-3M, 11 µM (inactive). Further, the GI50 was 27.4 µM (inactive) with NCI-H522; 23.3 µM (inactive) in the assay with SF-295; 5.94 µM (inactive) in the assay on SK-MEL-5; 30.7 µM (inactive) in the assay on SK-OV-3; 31.8 µM (inactive) in the assay with SNB-19; 27.6 µM (inactive) in the assay on SW-620. Besides, the GI50 with UACC-257 was 28.1 µM (inactive).
For the compound `O=c1oc2c(ccc3occc32)c(N2CCCCC2)c1-c1ccccc1`, the GI50 was > 70.8 µM (inactive) in the assay with EKVX; > 100 µM (inactive) in the assay with HCC 2998; > 100 µM (inactive) in the assay on HCT-116; > 100 µM (inactive) with IGROV-1; > 100 µM (inactive) in the assay with Malme-3M; > 86.3 µM (inactive) in the assay on NCI-H522. For the same compound, the GI50 in the assay on OVCAR-3 is > 100 µM (inactive); with SF-295 it was 97.3 µM (inactive); in the assay with SF-539, > 100 µM (inactive); in the assay on SK-MEL-5, > 72.4 µM (inactive); in the assay with SNB-19, > 100 µM (inactive); with SW-620 it was > 100 µM (inactive). The GI50 in the assay on UO-31 is 12.7 µM (inactive).
In the case of `CCc1ccccc1NC(=O)CCc1n[nH]c(=S)o1`, the GI50 in the assay with CAKI-1 is > 100 µM (inactive); in the assay on CCRF-CEM it was > 100 µM (inactive); in the assay with EKVX it was > 100 µM (inactive); with HCC 2998, > 100 µM (inactive); with HCT-116, 18.5 µM (inactive); in the assay with IGROV-1 it was > 100 µM (inactive). Further, the GI50 with M14 is > 100 µM (inactive); in the assay on Malme-3M, > 100 µM (inactive); in the assay on OVCAR-3, > 100 µM (inactive); in the assay on SF-295 it was > 100 µM (inactive); in the assay on SF-539 it was 76.2 µM (inactive); with SK-MEL-5 it was > 100 µM (inactive). Also, the GI50 in the assay with SK-OV-3 was > 100 µM (inactive); in the assay with SNB-19, > 100 µM (inactive); in the assay with SW-620, 18.6 µM (inactive); in the assay with UACC-257, > 100 µM (inactive); with UO-31 it was > 100 µM (inactive).
Take `CN(C)/N=C(\CCN1CCCC1)CC(c1ccccc1)c1c(O)c2ccccc2oc1=O` (configuration not stated): the GI50 with CAKI-1, with CCRF-CEM, in the assay with EKVX, in the assay on HCC 2998, in the assay on HCT-116 and in the assay on IGROV-1 was > 100 µM (inactive) each time. Further, the GI50 in the assay on M14, with Malme-3M, in the assay on NCI-H522, in the assay with OVCAR-3, in the assay on SF-295 and with SF-539 was > 100 µM (inactive) throughout. Further, the GI50 in the assay with SK-OV-3, in the assay with SNB-19, with SW-620 and with UACC-257 was > 100 µM (inactive) in each case.
In the case of `O=c1nc(-c2ccccc2)scc1-c1ccccc1`, the GI50 in the assay on CAKI-1, in the assay with CCRF-CEM, with EKVX, with HCT-116, with IGROV-1 and with M14 was > 100 µM (inactive) each time. Besides, the GI50 in the assay with Malme-3M was > 100 µM (inactive); with NCI-H522 it was 21 µM (inactive); in the assay with OVCAR-3, > 100 µM (inactive); in the assay with SF-295 it was > 100 µM (inactive); in the assay on SF-539, > 100 µM (inactive); in the assay on SK-MEL-5, > 100 µM (inactive). The GI50 was > 100 µM (inactive) in the assay with SK-OV-3; 59.7 µM (inactive) with SNB-19; > 100 µM (inactive) in the assay with SW-620; > 100 µM (inactive) in the assay on UACC-257; > 100 µM (inactive) in the assay with UO-31.
Turning to `CC1OC=CC(=O)C1O` (configuration not stated), the GI50 in the assay with CCRF-CEM was 69.7 µM (inactive); with EKVX, > 100 µM (inactive); in the assay with HCC 2998, > 100 µM (inactive); in the assay on IGROV-1, > 100 µM (inactive); with M14 it was > 100 µM (inactive); in the assay with Malme-3M it was > 100 µM (inactive). For the same compound, the GI50 in the assay on NCI-H522 is 50.4 µM (inactive); in the assay on OVCAR-3 it was > 100 µM (inactive); in the assay on SF-295 it was > 100 µM (inactive); in the assay with SF-539 it was > 100 µM (inactive); in the assay on SK-MEL-5 it was > 100 µM (inactive); in the assay with SK-OV-3, > 100 µM (inactive). Further, the GI50 in the assay with SW-620, in the assay on UACC-257 and in the assay on UO-31 was > 100 µM (inactive) each time.

For the origin of these results see ChEMBL document CHEMBL1201862, “PubChem BioAssay data set” (2004).
